Measurements published in patent publication US20180147183A1, “USE OF R-OXIRACETAM IN PHARMACEUTICAL FIELD” (Chongqing Runze Pharmaceutical Co., Ltd., priority 2015, published 2018).
“And” between values parts separate entries of the source, which are not always exact repeats. Identical values can stand only once. Marks after values point to notes of the source that are not given here.

Tests used:
[1] = Pharmacokinetics and bioavailability in dogs, plasma determined by LC-MS; assay type: in vivo, dog
Description: A. The Pharmacokinetics of R-Oxiracetam In Vivo and Studies of Bioavailability
4 Determination Methods of Oxiracetam and R-Oxiracetam in Plasma by LC-MS
4.1 Chromatographic Conditions
Mobile phase: methanol: water (5:95)
Column: ZORBAX SB-Aq (2.1×100 mm 3.5μ)
Column temperature: 30° C.;
Injection volume: […] 4.2 Mass Spectrometry Detection Parameters
Mass spectrometry ionization method: electrospray ionization (ESI); ion polarity Positive; scanning mode for multiple reactions monitoring (MRM); scanning time of 100 ms. The ionic reactions used for quantitative analysis were m/z (oxiracetam) m/z 159.0→m/z 113.9 and m/z 143.1→m/z 126.0 (piracetam), respectively.
20 μL of the drug-containing the plasma sample is taken in a 1.5 mL Eppendorf tube. 20 μL of piracetam (20 μg/mL) of the internal standard solution is added, and mixed by the vortex mixer for 30s. Then, 500 μL of acetonitrile is added thereto, vortex shaken for 5 min and centrifugated at 16000 rpm for 10 min. The supernatant from the centrifugation was passed through 1 ml of SPE C 18E column and the filtrate was collected, put into 38° C. constant temperature water bath and dried by nitrogen gas. 300 μL of mobile phase was dissolved and the injection volume was 10 μL.
20 μL of blank dog plasma was added into the working solution prepared from the oxiracetam standard. The concentrations of oxiracetam in the plasma were 0.167, 0.33, 0.37, 1.33, 2.67, 4.0, 6.67, 13.33 and 26.67 μg/mL, respectively. A sample was made for each concentration respectively according to the procedures“4.4 Extraction of plasma samples”. The ratio of the peak area (As) of oxiracetam to the peak area (Ai) of the internal standard piracetam (f=As/Ai) were calculated, and perform linear regression using the concentration (C) to the ratio (f). The weight parameter 1/x, and the oxiracetam regression equation: y=5.2117X−0.76985 (r=0.9970, weight 1/x).
20 μL of blank dog plasma was added into the working solution prepared from the R-oxiracetam standard. The concentrations of R-oxiracetam in the plasma were 0.167, 0.33, 0.37, 1.33, 2.67, 4.0, 6.67, 13.33 and 26.67 μg/mL, respectively. A sample was made for each concentration respectively according to the procedures “4.4 Extraction of plasma samples”. The ratio of the peak area (As) of R-oxiracetam to the peak area (Ai) of the internal standard piracetam (f=As/Ai) were calculated, and perform linear regression using the concentration (C) to the ratio (f). The weight parameter 1/x, and the oxiracetam regression equation: y=1.6811X−0.031244(r=0.9949, weight 1/x).

[2] = cited from earlier work
[3] = test system: lithium chloride-pilocarpine epilepsy model rat; assay: Lithium chloride-pilocarpine rat epilepsy model, prophylactic administration; assay type: in vivo, SD rats; conditions: 10 rats; for mortality rate: within 1 to 7 days after modeling
Excerpt: Stages: epileptic seizures evaluation are categorized by Racine Stages
Stage 0: no signs of any seizure;
Stage I: staring, head and face slightly trembling;
Stage II: head nodding or wet dog-like shaking;
Stage III: forelimb limit convulsions;
Stage IV: full-body ankylosing convulsions with a standing hind limb;
Stage V: full-body ankylosing clonic seizures with standing with fell;
Partial epilepsy seizure occurs when any one of Stage Ito Stage III appears;
Generalized epilepsy seizure occurs when Stage IV or Stage V appears;
Status epilepticus (SE) occurs when Stage IV or Stage V lasts 30 minutes.
The rat epilepsy models were treated with lithium chloride-pilocarpine and used levetiracetam as positive control. The duration of acute seizures of lithium chloride-pilocarpine epilepsy model rat was selected as the observation time, and prophylactic administration was used.
Animals were randomly divided into 4 groups, 10/group. Levetiracetam was selected as a positive control, 1.5 times of clinical dose were chosen, that is, 150 mg/kg. The clinical dose of an adult is 800 mg/times, twice daily, that is, 1600 mg/60 kg, 26.7 mg/kg. The dose of a rat is converted to 160 mg/kg according to body surface area. R-oxiracetam and levorotatory oxiracetam were selected half of the dose, that is, 80 mg/kg, and 1.5 times is 120 mg/kg. The dose was 1 ml/100 g, and the rats were treated with continuous administration for 7 days. As levetiracetam administration of 1.3 h (80 min), the plasma concentration peak, so we choose the last 80 minutes after the last administration of modeling. As administration of levetiracetam for 1.3 h (80 min), the plasma concentration peak was reached, so each group was selected after the last 80 minutes after the start of modeling.
Modeling method: After several previous test, the following modeling method was chosen: Animal ip. Lithium chloride 3 mmol/kg (1.5 ml/L) 127 mg/kg (12.7 mg/ml, 1 ml/100 g body weight), 24 h, 37.5 mg/kg pilocarpine three times ip. mg/kg (2.5 mg/ml, 0.5 ml/100 g body weight) at intervals of 10 minutes. […]

[4] = test system: Pentetrazol (PTZ) ignited rat epilepsy model; assay: Pentetrazol (PTZ)-ignited rat epilepsy model; assay type: in vivo, SD rats; conditions: for Seizure latency (X ± SD) / occurrence rates of stage IV or above seizures: 500 mg/kg daily
Description: Rats were injected intraperitoneally with PTZ at a dose of 35 mg/kg (7 mg/ml, 0.5 ml/100 g body weight) for sub-convulsions three times weekly. The animals are weighed before each ip, and observed for behavioral changes after ip. within 1-2 h. Behavioral scoring was carried out according to the revised Racine score. Three consecutive occurrences of seizures of stage IV and above indicate successful ignition.
The animals successfully ignited were chosen to be grouped. The animals were randomly divided into 4 groups, 8-10/group. […] 3 times of clinical dose were chosen, that is, 500 mg/kg. […] The dosage is 1 ml/100 g, continuous intragastrical administration of 10 days. Specific dose settings are as follows:
PTZ 35 mg/kg. The animals are observed for behavioral changes within 2 h. Behavioral scoring was carried out according to the revised Racine score, continuous administration for 10 days, grading standards as mentioned above.
The seizures were recorded daily ip PTZ within 2 h. The seizure levels, latencies, mortality were recorded, and compared with the model control group.

[5] = 150 mg/kg for 7 days before modeling
[6] = 120 mg/kg for 7 days before modeling

NC(=O)CN1CC(O)CC1=O (racemic) [oxiracetam]
Concentration in dog blood C ([1]; Time 0 h, individual dogs, one table per dog): 0 ng/mL | Concentration in dog blood C ([1]; Time 0.25 h, individual dogs, one table per dog): 5123 ng/mL and -4948 ng/mL and 7540 ng/mL and -4135 ng/mL and 5092 ng/mL | Concentration in dog blood C ([1]; Time 0.5 h, individual dogs, one table per dog): 41650 ng/mL and 36440 ng/mL and 42030 ng/mL and 41740 ng/mL and 42350 ng/mL | Concentration in dog blood C ([1]; Time 1 h, individual dogs, one table per dog): 106427.1 ng/mL and 101410.1 ng/mL and 79361 ng/mL and 58870 ng/mL and 139963.8 ng/mL and 290065.6 ng/mL | Concentration in dog blood C ([1]; Time 1.25 h, individual dogs, one table per dog): 104196 ng/mL and 77730 ng/mL and 107177.3 ng/mL and 68450 ng/mL and 302273 ng/mL and 142365.9 ng/mL | Concentration in dog blood C ([1]; Time 1.5 h, individual dogs, one table per dog): 122326.7 ng/mL and 104856.7 ng/mL and 96860 ng/mL and 192364.2 ng/mL and 186435.5 ng/mL | Concentration in dog blood C ([1]; Time 2 h, individual dogs, one table per dog): 161110.6 ng/mL and 146146.6 ng/mL and 100650 ng/mL and 207535.1 ng/mL and 137414 ng/mL and 228058.3 ng/mL | Concentration in dog blood C ([1]; Time 4 h, individual dogs, one table per dog): 52390 ng/mL and 40540 ng/mL and 28940 ng/mL and 42680 ng/mL and 21070 ng/mL and 33010 ng/mL | Concentration in dog blood C ([1]; Time 6 h, individual dogs, one table per dog): 8396 ng/mL and 4367 ng/mL and 4934 ng/mL and 7743 ng/mL and 29760 ng/mL and 8301 ng/mL | Concentration in dog blood C ([1]; Time 8 h, individual dogs, one table per dog): -3894 ng/mL and -4318 ng/mL and -4781 ng/mL and -745.6 ng/mL and -465.7 ng/mL | Concentration in dog blood C ([1]; Time 12 h, individual dogs, one table per dog): -4730.8 ng/mL and -4338 ng/mL and -8257 ng/mL and -2959 ng/mL and -6329 ng/mL and -958.4 ng/mL | Concentration in dog blood C ([1]; Time 24 h, individual dogs, one table per dog): 0 ng/mL and 21660 ng/mL | concentration at 0 h ([1]; dog, plasma, Time 0 h, individual dogs, one table per dog, read-out: Concentration in dog blood C): 0 ng/mL | concentration at 0.25 h ([1]; dog, plasma, Time 0.25 h, individual dogs, one table per dog, read-out: Concentration in dog blood C): 4890 ng/mL | concentration at 0.5 h ([1]; dog, plasma, Time 0.5 h, individual dogs, one table per dog, read-out: Concentration in dog blood C): 28200 ng/mL | concentration at 1.5 h ([1]; dog, plasma, Time 1.5 h, individual dogs, one table per dog, read-out: Concentration in dog blood C): 148000 ng/mL | concentration at 8 h ([1]; dog, plasma, Time 8 h, individual dogs, one table per dog, read-out: Concentration in dog blood C): 3120 ng/mL | Cmax ([1]; dog, plasma, dogs, mean ± SD): 202000 ± 79500 ng/mL

CC[C@@H](C(N)=O)N1CCCC1=O [Levetiracetam]
time of plasma concentration peak after administration ([2]; in vivo): 1.3 h | Latency Stage I [3, 5]: 17.6 ± 4.1 min | Latency Stage II [3, 5]: 22.6 ± 5.8 min | Latency Stage III [3, 5]: 34.6 ± 9.4 min | Latency Stage IV [3, 5]: 33.6 ± 8.3 min | Latency Stage V [3, 5]: 74.3 ± 24.3 min | Number of Deaths [3, 5]: 5 | Number of SE Animals [3, 5]: 7 | Number of seizures Stage I [3, 5]: 1.8 ± 0.8 times | Number of seizures Stage II [3, 5]: 4.4 ± 3.7 times | Number of seizures Stage III [3, 5]: 3.6 ± 2.3 times | Occurrence rate Stage I [3, 5]: 10% | Occurrence rate Stage II [3, 5]: 9% | Occurrence rate Stage III [3, 5]: 8% | Occurrence rate Stage IV [3, 5]: 7% | Occurrence rate Stage V [3, 5]: 7% | duration Stage IV [3, 5]: 23.3 ± 6.6 min | duration Stage V [3, 5]: 63.3 ± 19.0 min | mortality rate [3, 5]: 50%

NC(=O)CN1C[C@@H](O)CC1=O [S-oxiracetam]
Latency Stage I [3, 6]: 16.9 ± 5.4 min | Latency Stage II [3, 6]: 26.7 ± 6.5 min | Latency Stage III [3, 6]: 35.4 ± 5.8 min | Latency Stage IV [3, 6]: 37.8 ± 7.4 min | Latency Stage V [3, 6]: 64.5 ± 23.2 min | Number of Deaths [3, 6]: 3 | Number of SE Animals [3, 6]: 4 | Number of seizures Stage I [3, 6]: 2.2 ± 1.0 times | Number of seizures Stage II [3, 6]: 5.2 ± 3.1 times | Number of seizures Stage III [3, 6]: 5.6 ± 4.2 times | Occurrence rate Stage I [3, 6]: 10% | Occurrence rate Stage II [3, 6]: 10% | Occurrence rate Stage III [3, 6]: 5% | Occurrence rate Stage IV [3, 6]: 4% | Occurrence rate Stage V [3, 6]: 4% | duration Stage IV [3, 6]: 27.5 ± 12.1 min | duration Stage V [3, 6]: 79.8 ± 29.5 min | mortality rate [3, 6]: 30%

CCCC(CCC)C(=O)[O-].[Na+] [Sodium valproate, reference compound]
Seizure latency (X ± SD) ([4]; D1): 4.00 ± 1.41 m | occurrence rates of stage IV or above seizures ([4]; D1): 4/6 (66.7) % | Seizure latency (X ± SD) ([4]; D2): 5.67 ± 2.25 m | occurrence rates of stage IV or above seizures ([4]; D2): 3/6(50.0) % | Seizure latency (X ± SD) ([4]; D3): 5.67 ± 1.37 m | occurrence rates of stage IV or above seizures ([4]; D3): 3/6 (50.0) % | Seizure latency (X ± SD) ([4]; D4): 6.33 ± 1.63 m | occurrence rates of stage IV or above seizures ([4]; D4): 2/6 (33.3) % | occurrence rates of stage IV or above seizures ([4]; D5): 2/6 (33.3) % | occurrence rates of stage IV or above seizures ([4]; D6): 2/6 (33.3) % | occurrence rates of stage IV or above seizures ([4]; D7): 1/6* (16.7) % | occurrence rates of stage IV or above seizures ([4]; D8): 0/6** (0) % | occurrence rates of stage IV or above seizures ([4]; D9): 1/6 (16.7) % | Seizure latency (X ± SD) ([4]; D10): 8.33 ± 0.82 m | occurrence rates of stage IV or above seizures ([4]; D10): 0/6* (0) % | mortality rate ([4]; 500 mg/kg intragastric, 10 days): 0% | Numbers of deaths (Number) ([4]; 500 mg/kg intragastric, 10 days, 6 animals): 0 | bioavailability ([2]; oral administration): ~100%
